This note sets out measurements from patent publication US20260309621A1, “HIGH THROUGHPUT OPTICAL ASSAY FOR SCREENING HEMOGLOBIN OXYGEN AFFINITY MODIFYING DRUG” (CASE WESTERN RESERVE UNIVERSITY, priority 2023, published 2026).

One data set relates to HbSS patient whole blood. The data set is described as follows: Peak wavelength shift of whole blood from SCD patients stratified by treatment. More on the design: species or system human. As to the method:
Blood samples were collected from healthy donors and individuals with SCD as part of standard clinical care. We received ethical approval from the University Hospitals of Cleveland Medical Center's Institutional Review Board (IRB) and Joint Clinical Research Ethics Committee in Kampala, Uganda, for the Naïve SCD group. All participants in the study provided written informed consent. When collected, blood samples were de-identified, kept at 4 degrees Celsius, and processed within 6 hours of receipt. […] Hemoglobin profiles of samples were verified using the reference standard high performance liquid chromatography (HPLC, VARIANT™ II, Bio-Rad Laboratories, Inc., Hercules, California). […] Intracellular hemoglobin concentration for all blood samples was measured under normoxia with complete blood count (CBC, Hemavet 950FS, Hematology System, Draw Scientific Inc.; Miami, Florida).
During testing with either oxygenation or deoxygenation, samples were analyzed in three microplate wells using a spectroscopy microplate reader Spectramax M2e (Molecular Devices, San Jose, CA), over a spectral range of 350-750 nm, with a wavelength resolution of 2 nm and at a customized microplate well reading setting at room temperature. […] (3) For each sample and at concentration of 0.053 M Na2S2O5, the bathochromic wavelength shift and intensity were assessed for further analysis (FIG. 7D). […]

In the next data set the test system is hemoglobin (HbAA, HbSS). In words: Hemoglobin-oxygen dissociation assay (Soret band bathochromic shift with partial chemical deoxygenation by Na2S2O5). Type of data set: biochemical, human. Particulars: for Peak wavelength: pH 6.9, pO2 = 75 mmHg, mean ± SEM; for peak wavelength, repeatability: ~20 mmHg pO2, mean ± SEM. The source says: Herein, we take advantage of the unique optical shift of Hb's Soret band and combine it with partial chemical deoxygenation to optically measure Hb-O2 dissociation under physiologically acidic conditions at pH 6.9.
Blood samples were collected from healthy donors and individuals with SCD as part of standard clinical care. We received ethical approval from the University Hospitals of Cleveland Medical Center's Institutional Review Board (IRB) and Joint Clinical Research Ethics Committee in Kampala, Uganda, for the Naïve SCD group. All participants in the study provided written informed consent. When collected, blood samples were de-identified, kept at 4 degrees Celsius, and processed within 6 hours of receipt. […] Hemoglobin profiles of samples were verified using the reference standard high performance liquid chromatography (HPLC, VARIANT™ II, Bio-Rad Laboratories, Inc., Hercules, California). The results were presented as a percentage of HbS, A2, and F; the remainder was considered HbA since the values were normalized to 100%. Intracellular hemoglobin concentration for all blood samples was measured under normoxia with complete blood count (CBC, Hemavet 950FS, Hematology System, Draw Scientific Inc.; Miami, Florida).
Three independent sample preparations were performed to test different hypotheses. (1) Whole blood, (2) isolated intact red blood cells (RBC), and (3) purified hemoglobin (lysed samples).
For whole blood preparation, 75 μl of whole blood was mixed with pH 6.9 buffers at a ratio of 1:300 and incubated for 10 minutes at room temperature before deoxygenation.
For intact RBC sample preparation, whole blood was centrifuged at 500 g for 10 minutes in a microcentrifuge (model 21r; Thermo Scientific, Waltham, MA). The plasma and buffy coat were removed via aspiration. The RBCs were washed thrice with phosphate-buffered saline (PBS) at pH 7.4 (Gibco, Thermo Scientific, Waltham, MA). Next, 45 μL of the washed RBC suspension was diluted with a pH 6.9 buffer solution until the baseline hematocrit of 0.2% was achieved. Before deoxygenation, RBCs were incubated for 10 minutes in a pH 6.9 buffer solution at room temperature.
For purified hemoglobin preparation; lysed samples were prepared. Hemolysis was carried out by sonication for 30 seconds (Hemex Health; Portland, OR). Following hemolysis, the lysed cell suspension was added to various pH buffer solutions and centrifuged at 2000 g for 1 hour. Three hundred μl of the cell lysate was removed, and the supernatant was dis-carded. Cell lysates were diluted in 700 μl of the specific pH buffer solution and centrifuged at 2000 g for 1 hour. The 1 ml of pH buffer solution and cell lysate were filtered through a 0.02 μm Millipore membrane. The hemoglobin concentration in the lysed sample was determined using the hemoglobin [COMPOUND LEFT OUT] (HiCN) method and measured with a cuvette spectrophotometer at 540 nm. Each purified lysed sample was diluted with different pH solutions (pH 6.9, 7.2, 7.4, 8.0, and 10.0) to achieve a hemoglobin concentration of 2.8 mg dl^−1, determined as the baseline for lysed sample analysis.

For a further data set, the system named is purified hemoglobin. The data set is described as follows: Circular dichroism spectra of purified hemoglobin at pH 6.9. Type of data set: physicochemical, human. Particulars: purified Hb, pH 6.9, 75 mmHg, deoxy. An excerpt: The circular dichroism (CD) spectra, like the absorption spectra in the Soret and visible range, reveal the molecular structure of the hemoglobin globin and heme groups. […] CD spectra were collected between 190 and 650 nm wavelength on a Jasco J-1500 Spectropolarimeter with a 1 mm quartz cuvette and a scan rate of 4 seconds. The recorded spectra were background subtracted, accounting for a pH 6.9 buffer. The data was baselined and smoothed in the Spectra Manager software (Release 2018; Version 2.15.01).
A general note: CD spectra are sensitive to the conformation of chiral molecules.

In the next data set the target is T1, HbSS (Homo sapiens, UniProt P68871+P69905, E7V).
T1 construct: whole blood, washed red cells or purified hemoglobin
In words: 96-well high throughput optical absorption assay: Soret band peak wavelength shift of deoxygenated SCD samples treated with oxygen modifying molecules. Type of data set: biochemical. An excerpt:
FIGS. 3(A-C) illustrate varying concentration of voxelotor tested using 96 well plates optical assay. (A) Representative 96 well plate, showing the arrangement of a single sample analyzed. […] (B) Insert from the 12 columns of the 96 well plate, showing the Soret band peak wavelength shift in the wavelength range of 380-450 nm.
FIGS. 4(A-B) illustrate increasing the concentration of voxelotor induces a decrease in the peak wavelength of SCD samples (A) Insert from the 12 columns of the 96 well plate, showing the Soret band peak wavelength shift in the wavelength range of 380-450 nm.
FIGS. 5(A-B) illustrate varying concentration of PKR activator tested using 96 well plates optical assay. (A) Insert from the 12 columns of the 96 well plate, showing the Soret band peak wavelength shift in the wavelength range of 380-450 nm.
FIGS. 6(A-B) illustrate varying concentrations of aptamer induce peak wavelength shift. (A) Soret band peak wavelength shifts for oxygenated blood with aptamer deoxygenated blood with aptamer, untreated blood, and voxelotor treatment were compared in the wavelength range of 350-450. Increasing the concentration of aptamer from 0.2 dosages (B) Increasing the concentration of aptamer from 0.2 dosages to 0.25 induces a reduction in peak wavelength from 416 nm to 414 nm.
This example relates to a 96-well high throughput assay optical absorption spectroscopic assay that can be used to assess the rate of oxygen release from hemoglobin.
Whole blood, purified hemoglobin, or washed red blood cells (RBCs) are mixed with a buffer solution at 6.8 or 8. Additional hemoglobin or RBCs to an acidic buffer changes the molecular conformational structure of hemoglobin. Determined volume of the analyte (including but not limited to whole blood, purified hemoglobin, or red blood cells (RBCs)) are mixed with buffer are added to each of the 12/96/384 well plates. The analytes are then chemically deoxygenated with a determined concentration of sodium metabisulphite an approach to deplete oxygen from hemoglobin molecules. The solution is analyzed using a spectroscopic microplate reader. […]

The test system of data set [1] is HbAA and HbSS whole blood. The data set is described as follows: pO2 reduction in whole blood by Na2S2O5 (blood gas analyzer). Set-up: species or system human. The procedure:
All samples were initially exposed to ambient air for 600 seconds. The oxygen partial pressure (pO2), 21% of atmospheric pressure (773 mmHg), was then normalized to 162 mmHg PO2 during oxygenation (FIG. 7A). Sodium metabisulphite (Na2S2O5) was used to deoxygenate the samples chemically (FIG. 7B). Predetermined amounts of sodium metabisulphite were mixed with 2 ml of the prepared samples for 90 seconds using a vortexer (Scientific Industries, Bohemia, NY). The concentrations of Na2S2O5 used with purified hemoglobin were 0.039 M, 0.046 M, 0.053 M, 0.059 M, 0.066 M, 0.079 M, and 0.082 M, which corresponded to a gradual reduction in the oxygen partial pressure in the samples. For whole blood and RBC analyses, we used 0.053 M of Na2S2O (17-fold more molecules than Hb molecules in solution) to achieve partial deoxygenation (Table 1). A blood gas analyzer (Nova Starter Pro, Nova BioMed, Boston, Massachusetts) was used to confirm the deoxygenation levels at those Na2S2O5 concentrations.
We used sodium metabisulphite (Na2S2O5) to deoxygenate purified hemoglobin, intact RBCs, or whole blood (FIGS. 7A & B). […] At elevated concentrations of Na2S2O5, corresponding to high levels of deoxygenation or pO2 close to 30 mmHg, the curve plateaus (FIG. 8).

In the case of `NC(=O)NO` [hydroxyurea], the “peak wavelength shift differences, oxygenated samples” value in the data set on HbSS patient whole blood (Hu HbSS, oxygenated, FIG. 11C) was “No significant differences”. In the data set on HbSS patient whole blood (hydroxyurea (Hu HbSS=15), deoxygenated 75 mmHg, pH 6.9, FIG. 11C), the “bathochromic shift differences between HbAA, HbAS and HbSS stratified by treatment” value was “significant differences”.
“purified Hb: purified hemoglobin (lysed samples)”: the “peak wavelength of purified Hb with increasing Hb concentration” value in the data set on hemoglobin (HbAA, HbSS) (purified Hb 0.3-11.2 mg/dl, FIG. 13) is listed as 420±0.2.
As for HbAA: healthy hemoglobin, the “peak wavelength, fully oxygenated” value in the data set on hemoglobin (HbAA, HbSS) (162 mmHg pO2, all pH values) is recorded as 414 nm. Further, the Peak wavelength in the data set on hemoglobin (HbAA, HbSS) (RBCs) is given as 418.0 ± 0.56 (n = 15); with hemoglobin (HbAA, HbSS) (purified hemoglobin), 417.2 ± 0.78 (n = 23); with hemoglobin (HbAA, HbSS) (whole blood), 415.3 ± 0.23 (n = 15). For the same compound, the “peak wavelength, repeatability” value in the data set on hemoglobin (HbAA, HbSS) (User1, whole blood) turned out to be 414.9±0.11; with hemoglobin (HbAA, HbSS) (User2, whole blood) it was 415.1±0.05. The “area under the peak” value in the data set with hemoglobin (HbAA, HbSS) (whole blood, FIG. 10I, pH 6.9, 75 mmHg pO2) was 37.2±0.8. The FWHM in the data set with hemoglobin (HbAA, HbSS) (whole blood, FIG. 10J, pH 6.9, 75 mmHg pO2) is reported as 24.3±0.82. For the same compound, the “CD Soret peak, partially deoxygenated” value in the data set with purified hemoglobin is 425 nm.
`CC(C)n1nccc1-c1ncccc1COc1cccc(O)c1C=O` [voxelotor]: at HbSS (63, 118, 211 and 421 μM Vox, Mann-Whitney, FIG. 4), the “difference in peak wavelength shift between deoxy HbSS and deoxy HbSS+Vox” value is on record as “Significate differences”. Moreover, the “peak wavelength shift of treated SCD samples compared to untreated SCD samples” value at HbSS (voxelotor, 3 hours incubation, varying concentrations) is “reduced peak wavelength shift”. Besides, on HbSS (voxelotor, reduction in peak wavelength shift to that of HbAA, FIG. 4), the “effect of increasing concentration on oxygen affinity of HbSS” value is “increases the oxygen affinity of HbSS”.
In the case of `O=S([O-])S(=O)(=O)[O-].[Na+].[Na+]` [Na2S2O5, sodium metabisulfite], in data set [1] (0-0.08 M Na2S2O5, 4 minutes, pH 6.9, 7.2, 7.4, 8.0, HbAA and HbSS, n=5, FIG. 8), the “pO2 in whole blood with increased Na2S2O5 concentration” value was 20-40 mmHg. In addition, in data set [1] (0.053 M Na2S2O5), the deoxygenation of hemoglobin entry is listed as “partial deoxygenation of hemoglobin” and the “pO2 of deoxygenated samples” value is listed as 75 mmHg. Further, the “min. pO2 in HbSS whole blood” value in data set [1] (0.053 M Na2S2O5, FIG. 8B) is recorded as “around 10 mmHg”.
